# Values joined by “and” are separate entries in the source; they are usually repeats but may differ in a detail not shown here. Equal entries are not always repeated.
# Assays:
# [1] = tested on: Klebsiella pneumoniae (ATCC 13883), phoE gene; test: PMA-qPCR of bacteria grown with ciprofloxacin; assay type: cell-based; details: 1000 μg/mL ciprofloxacin, 3 and 24-hour treatments
# Source text: The samples underwent PMA treatment, followed by DNA extraction, as described in Example 2. A primer set specific for K. pneumoniae that targets the gene phoE, derived from Shannon et al (doi:10.1016/j.scitotenv. 2007.02.039) was used in conjunction with the samples in a qPCR reaction.
# E. coli (UTI89) = test: Mouse UTI model, ciprofloxacin treatment, urine culture and PMA-PCR; details: 10 mg/kg i.p. twice a day for 3 days from day 5 post-inoculation; urine one day after completion
compound,measurement,setting,value
"O=C(O)c1cn(C2CC2)c2cc(N3CCNCC3)c(F)cc2c1=O [ciprofloxacin, Ciprofloxacin]",CT value of PMA-treated sample compared to non-PMA-treated equivalent,[1],greater CT
same,groups of mice with no growth on non-selective LB agar,E. coli (UTI89),3 of 5 and 3 out of the 5

# From patent publication US20230022779A1, “DETECTION OF VIABLE MICROORGANISMS IN URINE” (Children's National Medical Center, priority 2021, published 2023)
